Entries after “also recorded” stand apart in the source; their conditions may differ. Structures can show the parent of a compound that is named as a salt.
How the values were obtained:
[1] = system: outpatients with schizophrenia or schizoaffective disorder; set-up: species or system human; conditions: in vivo
Method: (§1) A six-week, rater-blind, multivitamin-controlled trial of Kuvan® was performed at the Lieber Schizophrenia Research Clinic, New York State Psychiatric Institute. Clinically stable outpatients with schizophrenia or schizoaffective disorder were randomly assigned to receive Kuvan® (20mg/kg/day) or a single, daily multivitamin tablet, added to their medication regimen. Subjects were also genotyped for the GCH1 gene promotor polymorphism (r510137071). The primary clinical efficacy outcome was change in total Positive and Negative Symptom Scale (PANSS) scores, measured at baseline, then weeks 2, 4 and 6. Improvements in function was measured by the UPSA-B, at baseline, then week 6. The primary cognitive outcome was measured by the MCCB, measured at baseline and week 6. A priori defined secondary outcomes were PANSS factor scores and MCCB domain scores.
No AEs were considered by the investigators to be serious. 75% (9/12) of subjects randomized to the multivitamin group and 61.5% (8/13) of those treated with Kuvan® experienced an AE, which was not statistically different (p=0.47). There was no statistically significant difference in the average number of AEs experienced by each subject (Kuvan=2.44±1.13; Multivitamin=3.0±2.07, p=0.49), or the degree to which each AEs was considered related to the study medication (Kuvan 18/24 total events; multivitamin 13/22 total events, p=0.35). Additionally, two subjects prematurely discontinued from the study based upon the predefined stopping rules, both of whom had been randomized to the multivitamin group.

[2] = system: outpatients with schizophrenia or schizoaffective disorder; assay: Six-week trial of Kuvan: UCSD Performance Based Skills Assessment-Brief (UPSA-B); assay type: in vivo, human
Method: as §1, with “scores. Data were analyzed using a mixed effects repeated measures model (Stata v14.1, College Station, TX). Models included fixed effects of treatment, time (week) and the treatment by time interaction, with random subject and time effects. Genotype (GCH1 A allele versus GG genotype) was also included as a fixed effect in additional models. […] All hypothesis tests were two-sided, with significance determined at unadjusted p<0.05.” for “scores.”

[3] = system: outpatients with schizophrenia or schizoaffective disorder; assay: Six-week rater-blind multivitamin-controlled trial of Kuvan: Positive and Negative Symptom Scale (PANSS); assay type: in vivo, human
Method: as §1, with “scores. Data were analyzed using a mixed effects repeated measures model (Stata v14.1, College Station, TX). Models included fixed effects of treatment, time (week) and the treatment by time interaction, with random subject and time effects. Genotype (GCH1 A allele versus GG genotype) was also included as a fixed effect in additional models. […] All hypothesis tests were two-sided, with significance determined at unadjusted p<0.05.” for “scores.”

[4] = system: outpatients with schizophrenia or schizoaffective disorder; assay: Six-week trial of Kuvan: MATRICS Consensus Cognitive Battery (MCCB); assay type: in vivo, human
Method: as §1, with “scores. Data were analyzed using a mixed effects repeated measures model (Stata v14.1, College Station, TX). Models included fixed effects of treatment, time (week) and the treatment by time interaction, with random subject and time effects. Genotype (GCH1 A allele versus GG genotype) was also included as a fixed effect in additional models. […] All hypothesis tests were two-sided, with significance determined at unadjusted p<0.05.” for “scores.”

[5] = did not reach two-tailed statistical significance

SMILES: C[C@H](O)[C@H](O)[C@H]1CNc2nc(N)[nH]c(=O)c2N1 [Kuvan®, saproterin dihydrochloride]
- AEs considered related to the study medication ([1]; human, 6 weeks): 18/24
- average number of AEs experienced by each subject ([1]; human, 6 weeks): 2.44±1.13
- subjects who experienced an adverse event ([1]; human, 6 weeks): 61.5%
- severity of adverse events [1]: generally mild
- UPSA-B Financial subscale, Kuvan group versus multivitamin group ([2]; baseline to week 6, p<0.001): performance improvement
- treatment*time*genotype interaction on total UPSA-B score ([2]; p=0.096): trend towards significance
- unadjusted UPSA-B Financial Subscale scores, change between baseline and study end ([2]; paired sample t-tests, Kuvan p=0.039, multivitamin p=0.025): significant increase
- UPSA-B score, treatment*time interaction ([2]; primary functional outcome): did not show a significant treatment*time interaction
- change in total PANSS score, treatment effect ([3]; Kuvan 20mg/kg/day vs daily multivitamin, baseline to week 6, treatment*time p>0.05): no treatment effect
- PANSS factor scores (Positive, Negative and General Psychopathology), treatment*time effect ([3]; Kuvan vs multivitamin, six weeks): no significant treatment*time effect
- genotype effect (treatment*time*genotype) on total PANSS score ([3]; p<0.1 for each visit compared to baseline): A genotype effect was not observed
- MCCB composite score, final mean ([4]; GCH1 A allele patients, study end (week 6), Kuvan n=5 p=0.044, multivitamin n=8 p=0.36 vs baseline): 34.4±11.89
- MCCB composite score, baseline mean ([4]; GCH1 A allele patients, Kuvan n=5, multivitamin n=8): 28.4±8.62
- interaction of treatment, time and genotype on the MCCB Composite Score ([4]; GCH1 A allele versus GG, p=0.002, dihydrochloride): significant effect of GCH1 genotype by treatment group; also recorded: significant interaction
- A allele carriers exhibiting improvement on the MCCB composite T score ([4]; baseline to study end, Kuvan 4/5, multivitamin 2/8): 80%
- MCCB Social Cognition domain, Kuvan group versus multivitamin group ([4]; baseline to week 6, p=0.085): trend toward significance
- MCCB social cognition domain score, change from baseline [4, 5]: increased from baseline
- MCCB working memory domain score, change from baseline [4, 5]: increased from baseline
- MCCB Working Memory domain, Kuvan group versus multivitamin group ([4]; n=13 vs n=12 completers, baseline to week 6, p=0.05): performance improvement
- cognitive change from baseline (MCCB composite) in GCH1 A allele patients ([4]; paired t-test p=0.044): significant cognitive improvement
- MCCB composite score, treatment*time interaction ([4]; primary cognitive outcome, one-tailed trend p=0.0735): did not show a significant treatment*time interaction
